Measurements from patent US20240269132A1, “COMPOSITIONS AND METHODS FOR TREATING POLYCYTHEMIA” (Disc Medicine, Inc., priority 0001, published 2024).

Tests used:
Assay type in all cases: in vivo, C57BL/6J mice
[1] = Body weight in the DPO-induced erythrocytosis study; conditions: 30 or 60 mg/kg orally once daily, 8-day treatment, DPO model (FIG. 2B)
Procedure: (§1) Briefly, C57BL/6J mice were administrated with DPO subcutaneously at 10 μg/kg/week for 2 weeks to induce erythrocytosis resembling the pathological process of polycythemia vera (FIG. 2A). 30 mg/kg or 60 mg/kg of GlyT1 inhibitor bitopertin or vehicle control was administrated orally into wild type C57BL/6J mice (10 mice per group for the vehicle and 30 mg/kg groups; 15 mice for the 60 mg/kg group) once daily from day 7 to day 15. The 60 mg/kg group was dosed at 20 mg/kg on day 7, 40 mg/kg on day 8-9, 50 mg/kg on day 10-11, 60 mg/kg on day 12-15. Blood samples were collected from submaxillary on day 0 before the first DPO administration, on day 7 before the first dose of GlyT1 inhibitor, and on day 15, 6 hours after the dosing of GlyT1 inhibitor for CBC panel analysis using Sysmex XN-1000™ hematology analyzer.

[2] = Body weight in the EPO-induced erythrocytosis study; conditions: 30 mg/kg orally once daily, 14-day treatment, EPO model (FIG. 1B)
Excerpt: (§2) The EPO-induced secondary erythrocytosis model was used to evaluate the in vivo pharmacodynamic effect of GlyT1 inhibitor in preventing, treating, or reducing the progression rate and/or severity of polycythemia vera. Erythropoietin (EPO) stimulates the production of red blood cells and results in increased hematocrit in mice after daily dosing for 7 days at 50 IU. Therefore, the EPO model mimics the hematological parameters of polycythemia vera where JAK2 mutation drives the erythrocytosis. Briefly, 30 mg/kg of GlyT1 inhibitor bitopertin or vehicle control was administrated orally into wildtype C57BL/6J mice (10 mice per group) once daily from day 1 to day 15. 50 IU EPO was administrated daily by intraperitoneal route from day 8 to day 14 to induce erythrocytosis resembling the pathological process of polycythemia vera (FIG. 1A). Blood samples were collected from submaxillary on day 8 before the first EPO administration and on day 15, 6 hours after the last dose of GlyT1 inhibitor for CBC panel analysis using Sysmex XN-1000™ hematology analyzer. Bioanalysis of drug concentration was performed in plasma collected 6 hours after the last dose. All mice were weighed and humanely euthanized. The spleen was weighed and the spleen index was calculated via dividing the weight of spleen by the whole-body weight.

[3] = test system: EPO-induced secondary erythrocytosis model; assay: EPO-induced secondary erythrocytosis murine model: spleen index and CBC panel; conditions: 30 mg/kg orally once daily
Excerpt: as §2

[4] = Plasma drug concentration in the EPO-induced erythrocytosis study; conditions: C57BL/6J, mouse, po, 6 hours after the last dose, 30 mg/kg orally once daily day 1 to 15, mice (FIG. 1C)
Excerpt: as §2

[5] = test system: DPO-induced secondary erythrocytosis model; assay: DPO-induced secondary erythrocytosis murine model: CBC panel
Procedure: Darbepoietin-alpha (DPO) is a long-lasting analogue of EPO. To investigate the in vivo pharmacodynamic effect of GlyT1 inhibitor in preventing, treating, or reducing the progression rate and/or severity of polycythemia vera for longer periods, DPO was used to stimulate the production of red blood cells and mimicking the hematological features of polycythemia vera where JAK2 mutation drives the erythrocytosis.
as §1

With `C[C@H](Oc1ccc(S(C)(=O)=O)cc1C(=O)N1CCN(c2ncc(C(F)(F)F)cc2F)CC1)C(F)(F)F` [bitopertin] the body-weight changes [1] was “No major body-weight changes”, the body-weight changes [2] was “No major body-weight changes” and the “hematocrit (HCT %)” value ([3]; EPO model, day 15 (FIG. 1E)) was “reduced”. For the same molecule, the RBC count ([3]; EPO model, day 15 (FIG. 1F)) was “reduced”, the Hemoglobin levels ([3]; EPO model, day 15 (FIG. 1G)) was “reduced” and the “spleen index (spleen weight / whole-body weight)” value ([3]; EPO 50 IU i.p. day 8-14, EPO + vehicle 1.56%, normal mice 0.39% (FIG. 1D)) was 1.26%. The concentration at 6 h [4] was 639 ± 38 ng/mL, the “reticulocyte hemoglobin (RET-He)” value ([5]; 30 or 60 mg/kg orally once daily day 7-15, DPO model (FIG. 2F)) was “significant reduction” and the “mean corpuscular hemoglobin (MCH)” value ([5]; 30 or 60 mg/kg orally once daily day 7-15, DPO model (FIG. 2G)) was “significant reduction”. For the same molecule, the “mean corpuscular volume (MCV)” value ([5]; 30 or 60 mg/kg orally once daily day 7-15, DPO model (FIG. 2H)) was “slightly reduced”, the “hematocrit (HCT %)” value ([5]; 30 or 60 mg/kg orally once daily day 7-15, DPO model, in a dose dependent manner (FIG. 2C)) was “reduced” and the RBC count ([5]; 30 or 60 mg/kg orally once daily day 7-15, DPO model, in a dose dependent manner (FIG. 2D)) was “reduced”. The “Hemoglobin levels (HGB)” value ([5]; 30 or 60 mg/kg orally once daily day 7-15, DPO model, in a dose dependent manner (FIG. 2E)) was “reduced”.
